Patent US11130769B2 (Prelude Therapeutics Incorporated, priority 2018, dated 2021)

Columns and labels:
MCL-1 = MCL-1 (Homo sapiens (Human), UniProt Q07820); experiment: Cell free Mcl-1:Bim affinity assay (fluorescence polarization competition); assay type: binding; conditions: 15 nM MCL-1, 5 nM FITC-Bim, 1 hour at room temperature; class symbols; read-out: BIM_Ki
How it was run: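 Fluorescence polarization competition: 10-point 3-fold compound dilutions displaced 5 nM FITC-Bim from 15 nM MCL-1 over 1 h at room temperature. Ki was derived from the fitted IC50 using the Nikolovska-Coleska equation, with percent inhibition normalized to DMSO and positive controls.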

H929 cells = experiment: Cell viability assay (H929 10 FBS); assay type: cell-based; conditions: Homo sapiens, NCI-H929, 24 hours, read-out: H929_10FBS IC50
How it was run: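 ATP-based luminescence (CellTiter-Glo or ATPlite 1 Step, 30-60 min at RT) gauged viability of H929 myeloma cells after 24 h compound treatment at 37 °C. Cells plated at 4000 per well in 10% FBS RPMI 1640 supplemented with pyruvate, HEPES and glucose.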

Chain of MCL-1 (Q07820 whole entry): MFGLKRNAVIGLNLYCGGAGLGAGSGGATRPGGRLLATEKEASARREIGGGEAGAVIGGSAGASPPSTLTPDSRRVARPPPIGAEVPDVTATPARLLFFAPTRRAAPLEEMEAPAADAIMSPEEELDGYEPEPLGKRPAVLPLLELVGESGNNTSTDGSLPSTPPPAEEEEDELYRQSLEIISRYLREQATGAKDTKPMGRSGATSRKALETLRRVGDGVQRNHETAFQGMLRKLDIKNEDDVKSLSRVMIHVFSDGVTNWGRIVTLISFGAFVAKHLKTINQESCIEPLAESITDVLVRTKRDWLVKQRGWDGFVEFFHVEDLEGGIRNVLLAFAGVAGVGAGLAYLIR

Structure (SMILES)	Ki (MCL-1) [nM]	IC50 (H929 cells) [nM]
COC1CN(C(=O)CO[C@H]2/C=C/COC(C)(C)C(=O)NS(=O)(=O)c3ccc4c(c3)N(C[C@@H]3CC[C@H]32)C[C@@]2(CCCc3cc(Cl)ccc32)CO4)C1 [Example 280, (3R,6R,7S,8E,22S)-6′-Chloro-7-[2-(3-methoxyazetidin-1-yl)-2-oxo-ethoxy]-12,12-dimethyl-15,15-dioxo-spiro[11,20-dioxa-15-thia-1,14-diazatetracyclo[14.7.2.03,6.019,24]pentacosa-8,16,18,24-tetraene-22,1′-tetralin]-13-one]	< 1	< 500
CC1(C)OC/C=C/[C@H](OCC(=O)NC2CCOCC2)[C@@H]2CC[C@H]2CN2C[C@@]3(CCCc4cc(Cl)ccc43)COc3ccc(cc32)S(=O)(=O)NC1=O [Example 282, 2-[(3R,6R,7S,8E,22S)-6′-Chloro-12,12-dimethyl-13,15,15-trioxo-spiro[11,20-dioxa-15λ6-thia-1,14-diazatetracyclo[14.7.2.03,6.019,24]pentacosa-8,16,18,24-tetraene-22,1′-tetralin]-7-yl]oxy-N-tetrahydropyran-4-yl-acetamide]	< 1	< 500
CC1(C)OC/C=C/[C@H](OCC(=O)N[C@@H]2CCOC2)[C@@H]2CC[C@H]2CN2C[C@@]3(CCCc4cc(Cl)ccc43)COc3ccc(cc32)S(=O)(=O)NC1=O [Example 284, 2-[(3R,6R,7S,8E,22S)-6′-Chloro-12,12-dimethyl-13,15,15-trioxo-spiro[11,20-dioxa-15λ6-thia-1,14-diazatetracyclo[14.7.2.03,6.019,24]pentacosa-8,16,18,24-tetraene-22,1′-tetralin]-7-yl]oxy-N-[(3R)-tetrahydrofuran-3-yl]acetamide]	< 1	< 500

Results, then the compound that gave them:

Ki (MCL-1) [nM]	IC50 (H929 cells) [nM]	Structure (SMILES)
< 1	< 500	CC1(C)OC/C=C/[C@H](OCC(=O)N2CC(F)C2)[C@@H]2CC[C@H]2CN2C[C@@]3(CCCc4cc(Cl)ccc43)COc3ccc(cc32)S(=O)(=O)NC1=O [Example 281, (3R,6R,7S,8E,22S)-6′-Chloro-7-[2-(3-fluoroazetidin-1-yl)-2-oxo-ethoxy]-12,12-dimethyl-15,15-dioxo-spiro[11,20-dioxa-15-thia-1,14-diazatetracyclo[14.7.2.03,6.019,24]pentacosa-8,16,18,24-tetraene-22,1′-tetralin]-13-one]
< 1	< 500	CC1(C)OC/C=C/[C@H](OCC(=O)N2CCCC2)[C@@H]2CC[C@H]2CN2C[C@@]3(CCCc4cc(Cl)ccc43)COc3ccc(cc32)S(=O)(=O)NC1=O [Example 283, (3R,6R,7S,8E,22S)-6′-Chloro-12,12-dimethyl-15,15-dioxo-7-(2-oxo-2-pyrrolidin-1-yl-ethoxy)spiro[11,20-dioxa-15-thia-1,14-diazatetracyclo[14.7.2.03,6.019,24]pentacosa-8,16,18,24-tetraene-22,1′-tetralin]-13-one]
< 1	< 500	CC1(C)OC/C=C/[C@H](OCC(=O)N[C@H]2CCOC2)[C@@H]2CC[C@H]2CN2C[C@@]3(CCCc4cc(Cl)ccc43)COc3ccc(cc32)S(=O)(=O)NC1=O [Example 285, 2-[(3R,6R,7S,8E,22S)-6′-Chloro-12,12-dimethyl-13,15,15-trioxo-spiro[11,20-dioxa-15λ6-thia-1,14-diazatetracyclo[14.7.2.03,6.019,24]pentacosa-8,16,18,24-tetraene-22,1′-tetralin]-7-yl]oxy-N-[(3S)-tetrahydrofuran-3-yl]acetamide]
1 to 100	> 1000	CN(C)C(=O)OC1CCCOC(C)(C)C(=O)NS(=O)(=O)c2ccc3c(c2)N(C[C@@H]2CC[C@@H]12)C[C@@]1(CCCc2cc(Cl)ccc21)CO3 (stereo partly drawn) [Example 286, [(3R,6R,22S)-6′-Chloro-12,12-dimethyl-13,15,15-trioxo-spiro[11,20-dioxa-15-thia-1,14-diazatetracyclo[14.7.2.03,6.019,24]pentacosa-16,18,24-triene-22,1′-tetralin]-7-yl] N,N-dimethylcarbamate]
